In ChEMBL document CHEMBL3588790, “Identification of p-hydroxybenzyl alcohol, tyrosol, phloretin and its derivate phloridzin as tyrosinase substrates” (Bioorg Med Chem, 2015):
Active and inactive are the calls of the source. The calls are words filed in the database; no cut-off is given here.

Tests used:
[1] = target: T1, Tyrosinase (Agaricus bisporus) (UniProt O42713); assay: Activity at mushroom tyrosinase assessed as decrease in absorbance using L-dopa as substrate by oxygen consumption assay
T1 sequence (whole entry): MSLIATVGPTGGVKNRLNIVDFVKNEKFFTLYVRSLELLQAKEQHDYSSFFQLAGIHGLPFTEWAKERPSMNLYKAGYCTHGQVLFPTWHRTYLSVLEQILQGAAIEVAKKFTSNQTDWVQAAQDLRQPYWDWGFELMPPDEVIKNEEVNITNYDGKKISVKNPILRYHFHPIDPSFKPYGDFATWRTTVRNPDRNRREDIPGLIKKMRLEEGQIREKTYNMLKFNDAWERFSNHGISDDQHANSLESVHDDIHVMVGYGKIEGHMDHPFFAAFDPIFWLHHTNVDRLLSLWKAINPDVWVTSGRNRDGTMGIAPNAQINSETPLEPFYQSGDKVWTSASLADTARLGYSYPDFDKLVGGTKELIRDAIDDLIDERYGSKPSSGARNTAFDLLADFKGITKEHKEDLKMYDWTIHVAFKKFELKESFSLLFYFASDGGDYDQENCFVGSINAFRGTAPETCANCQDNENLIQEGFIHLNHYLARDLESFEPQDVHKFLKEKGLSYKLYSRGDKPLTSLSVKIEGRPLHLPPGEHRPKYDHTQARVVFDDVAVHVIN

[2] = target: T1, Tyrosinase (Agaricus bisporus); conditions: 0.15 mM
Description: Inhibition of diphenolase activity of mushroom tyrosinase using L-dopa as substrate at 0.15 mM by spectrophotometric assay

[3] = target: T1, Tyrosinase (Agaricus bisporus); assay: Activity at mushroom tyrosinase assessed as decrease in absorbance using DOMA as substrate by oxygen consumption assay
[4] = target: T1, Tyrosinase (Agaricus bisporus); assay: Inhibition of monophenolase activity of mushroom tyrosinase using L-tyrosine as substrate at 0.05 mM by spectrophotometric assay
[5] = target: T1, Tyrosinase (Agaricus bisporus); conditions: 0.15 mM; remark: listed apart in the source
Description: Inhibition of monophenolase activity of mushroom tyrosinase using L-tyrosine as substrate at 0.15 mM by spectrophotometric assay

[6] = target: T1, Tyrosinase (Agaricus bisporus); assay: Inhibition of diphenolase activity of mushroom tyrosinase using L-dopa as substrate at 0.05 mM by spectrophotometric assay
[7] = target: T1, Tyrosinase (Agaricus bisporus); assay: Inhibition of monophenolase activity of mushroom tyrosinase using L-tyrosine as substrate at 0.1 mM by spectrophotometric assay
[8] = target: T1, Tyrosinase (Agaricus bisporus); assay: Activity at mushroom tyrosinase by spectrophotometric assay in presence of hydrogen peroxide
[9] = target: T1, Tyrosinase (Agaricus bisporus); assay: Activity at mushroom tyrosinase assessed as decrease in absorbance using L-tyrosine as substrate by oxygen consumption assay
[10] = target: T1, Tyrosinase (Agaricus bisporus); assay: Inhibition of diphenolase activity of mushroom tyrosinase using L-dopa as substrate at 0.1 mM by spectrophotometric assay
[11] = target: T1, Tyrosinase (Agaricus bisporus); assay: Inhibition of diphenolase activity of mushroom tyrosinase using L-dopa as substrate at 0.2 mM by spectrophotometric assay
[12] = target: T1, Tyrosinase (Agaricus bisporus); assay: Inhibition of monophenolase activity of mushroom tyrosinase using L-tyrosine as substrate at 0.2 mM by spectrophotometric assay
[13] = target: T1, Tyrosinase (Agaricus bisporus); assay: Activity at mushroom tyrosinase assessed as decrease in absorbance at 475 nm using L-dopa as substrate by spectrophotometric assay in presence of sodium periodate
[14] = target: T1, Tyrosinase (Agaricus bisporus); assay: Inhibition of diphenolase activity of mushroom tyrosinase using L-dopa as substrate at 3 mM by spectrophotometric assay
[15] = target: T1, Tyrosinase (Agaricus bisporus); assay: Inhibition of monophenolase activity of mushroom tyrosinase using L-tyrosine as substrate at 3 mM by spectrophotometric assay
[16] = target: T1, Tyrosinase (Agaricus bisporus); assay: Inhibition of diphenolase activity of mushroom tyrosinase using L-dopa as substrate at 9 mM by spectrophotometric assay
[17] = target: T1, Tyrosinase (Agaricus bisporus); assay: Inhibition of monophenolase activity of mushroom tyrosinase using L-tyrosine as substrate at 6 mM by spectrophotometric assay
[18] = target: T1, Tyrosinase (Agaricus bisporus); assay: Inhibition of diphenolase activity of mushroom tyrosinase using L-dopa as substrate at 6 mM by spectrophotometric assay
[19] = target: T1, Tyrosinase (Agaricus bisporus); assay: Inhibition of monophenolase activity of mushroom tyrosinase using L-tyrosine as substrate at 9 mM by spectrophotometric assay
[20] = target: T1, Tyrosinase (Agaricus bisporus); assay: Inhibition of diphenolase activity of mushroom tyrosinase using L-dopa as substrate at 1.5 mM by spectrophotometric assay
[21] = target: T1, Tyrosinase (Agaricus bisporus); assay: Inhibition of diphenolase activity of mushroom tyrosinase using L-dopa as substrate at 1 mM by spectrophotometric assay
[22] = target: T1, Tyrosinase (Agaricus bisporus); assay: Inhibition of diphenolase activity of mushroom tyrosinase using L-dopa as substrate at 0.5 mM by spectrophotometric assay

SMILES | Activity [1] | Activity [3] | inhibition [4] | inhibition [6] | inhibition [7] | Activity [8] | Activity [9] | inhibition [10] | inhibition [20] | inhibition [21] | inhibition [22] | other results
O=C(O)Cc1ccccc1 | – | – | – | – | – | – | – | – | – | – | – | inhibition [14]: 18.2%; inhibition [15]: 19.7%; inhibition [16]: 58.1%; inhibition [17]: 39.4%; inhibition [18]: 41.6%; inhibition [19]: 55.4%
OCc1ccc(O)cc1 | Active | Active | – | – | – | Active | Active | – | 38.9% | 28.4% | 15.2% | –
OCCc1ccc(O)cc1 | Active | Active | – | – | – | Active | Active | – | 18.3% | 18.7% | 14.3% | –

Continued, in another order:

Activity [1] | Activity [3] | inhibition [4] | inhibition [6] | inhibition [7] | Activity [8] | Activity [9] | inhibition [10] | inhibition [20] | inhibition [21] | inhibition [22] | SMILES | other results
Active | Active | 9% | 31.4% | 34% | Active | Active | 45.3% | – | – | – | O=C(CCc1ccc(O)cc1)c1c(O)cc(O)cc1O[C@@H]1O[C@H](CO)[C@@H](O)[C@H](O)[C@H]1O | inhibition [2]: 52.7%; inhibition [5]: 47.7%
– | – | 4.2% | 28.3% | 17.9% | Active | – | 46.2% | – | – | – | O=C(CCc1ccc(O)cc1)c1c(O)cc(O)cc1O | inhibition [11]: 62.6%; inhibition [12]: 48.5%; Activity [13]: Active
